Where “and” joins values, the source holds several entries; their conditions need not be identical. Equal entries are not always repeated.
Experiments:
MOLM-14 cells = experiment: AlamarBlue cell viability assay, MOLM-14; conditions: for Cell viability, MOML-14: Supplementary Figure 7, replicates; for MOLM-14 Cell Viability%: Figure 2f, 5 replicates
Protocol: (§1) The IC50 was calculated using GraphPad Prism software with a four-parameter dose-response curve fit.

BTK = BTK (Homo sapiens, UniProt Q06187); experiment: BTK degradation in MOLM-14 cells (western blot); assay type: cell-based; design: endogenous in cells; host or cells: MOLM-14; conditions: MOLM-14 cells, 200 nM, 24 h incubation
Chain of BTK (Q06187 whole entry): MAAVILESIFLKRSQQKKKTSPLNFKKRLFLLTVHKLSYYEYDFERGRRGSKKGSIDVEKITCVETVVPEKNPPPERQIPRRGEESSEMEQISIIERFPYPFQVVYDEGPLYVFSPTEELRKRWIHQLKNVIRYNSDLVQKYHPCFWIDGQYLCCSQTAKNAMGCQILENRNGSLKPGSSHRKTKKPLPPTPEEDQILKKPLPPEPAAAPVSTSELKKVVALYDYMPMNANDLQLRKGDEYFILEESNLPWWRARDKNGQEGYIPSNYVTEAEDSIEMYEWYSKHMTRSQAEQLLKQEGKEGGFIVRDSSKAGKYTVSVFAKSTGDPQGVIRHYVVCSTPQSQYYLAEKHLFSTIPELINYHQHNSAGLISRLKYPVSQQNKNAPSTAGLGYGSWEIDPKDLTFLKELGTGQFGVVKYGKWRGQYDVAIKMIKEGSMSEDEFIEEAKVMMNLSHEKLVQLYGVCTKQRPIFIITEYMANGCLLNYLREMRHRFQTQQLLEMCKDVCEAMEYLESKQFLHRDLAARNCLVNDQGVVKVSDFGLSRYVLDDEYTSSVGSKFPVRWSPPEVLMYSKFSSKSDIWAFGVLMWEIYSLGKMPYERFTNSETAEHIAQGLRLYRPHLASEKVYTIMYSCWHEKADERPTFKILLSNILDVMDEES

Mino cells = experiment: AlamarBlue cell viability assay, Mino; assay type: cell-based; conditions: for Mino Cell Viability%: Figure 2f, 5 replicates
Protocol: as §1

BTK-NanoLuc fusion = molecular target: T1, BTK-NanoLuc fusion (Homo sapiens, UniProt Q06187); experiment: NanoBRET BTK in-cell target engagement assay; assay type: cell-based; conditions: Figure 3d, triplicates
T1 construct: host or cells: HEK 293T/17
T1 sequence (Q06187 whole entry, the tested form may be a part): as the sequence (Q06187 whole entry) above
Protocol: The target engagement assay for BTK or CRBN was from Promega (BTK kit, Cat. No. N2500; CRBN kit, Cat. No. CS1810C136) and was performed according to the manufacture’s instruction with some modifications. Briefly, HEK 293/T17 cells (ATCC) were transiently transfected with BTK-NanoLuc® fusion vector or NanoLuc®-CRBN fusion vector (Promega) in 0.125 M CaCl2 and 1x HBS. Forty-eight hours after transfection, the cells were resuspended in Opti-MEM medium (Life Technologies, Cat. No. 11058021) at the density of 2 × 10^5 cells per mL and were plated into 96-well plates (Corning, Cat. No. CLS3600). Cells were incubated with 1.0 µM (BTK) or 0.5 µM (CRBN) NanoBRET™ Tracer and serially diluted unlabeled BTK PROTAC compounds (from 10 to 0.0032 µM, 5-fold dilution) for 2 h at 37 °С with 5% CO2 in an incubator. After 2 h incubation, the 3X Nano-Glo® Substrate with NanoLuc® extracellular inhibitor were added to cells and developed for 3 min at room temperature. BRET signals were collected using a BioTek SYNERGY H1 microplate reader equipped with a 450/80-nm BP filter for donor emission and a 610-nm LP filter for acceptor emission. BRET Ratio was calculated with the equation: [(Acceptor sample/Donor sample)–(Acceptor no tracer control/Donor no tracer control)] × 1000. The IC50 of the compound against its BTK or CRBN tracer was calculated using GraphPad Prism software.

CN(CCCCNc1cccc2c1C(=O)N(C1CCC(=O)NC1=O)C2=O)C(C)(C)C=C(C#N)C(=O)N1CCCC(n2nc(-c3ccc(Oc4ccccc4)cc3)c3c(N)ncnc32)C1 (centres unmarked) [RC-7]
Cell viability, MOML-14 (MOLM-14 cells; drug concentration 1.00E-05 M): 14.5806 and 18.8166 and 13.8981 and 12.7996 and 18.6335
Cell viability, MOML-14 (MOLM-14 cells; drug concentration 1.60E-08 M): 91.6861 and 127.114 and 140.005 and 143.301 and 145.198
Cell viability, MOML-14 (MOLM-14 cells; drug concentration 2.00E-06 M): 29.6105 and 35.3113 and 28.8948 and 32.5316 and 40.9787
Cell viability, MOML-14 (MOLM-14 cells; drug concentration 3.20E-09 M): 108.289 and 119.541 and 122.853 and 118.675 and 131.225
Cell viability, MOML-14 (MOLM-14 cells; drug concentration 4.00E-07 M): 92.6182 and 112.666 and 109.446 and 93.7916 and 129.078
Cell viability, MOML-14 (MOLM-14 cells; drug concentration 6.40E-10 M): 104.877 and 113.673 and 115.995 and 128.978 and 91.4031
Cell viability, MOML-14 (MOLM-14 cells; drug concentration 8.00E-08 M): 94.8735 and 136.951 and 131.242 and 108.447 and 144.149
Degradation at 200 nM (percentage of BTK degradation) (BTK): 6%

CN(CCOCCOCCOCCNC(=O)CNc1cccc2c1C(=O)N(C1CCC(=O)NC1=O)C2=O)C(C)(C)C=C(C#N)C(=O)N1CCCC(n2nc(-c3ccc(Oc4ccccc4)cc3)c3c(N)ncnc32)C1 (centres unmarked) [RC-5]
Cell viability, MOML-14 (MOLM-14 cells; drug concentration 1.00E-05 M): 1.391 and 1.373 and 1.5492 and 0.5927 and 1.848
Cell viability, MOML-14 (MOLM-14 cells; drug concentration 1.60E-08 M): 74.2327 and 92.4124 and 92.4946 and 100.939 and 90.3468
Cell viability, MOML-14 (MOLM-14 cells; drug concentration 2.00E-06 M): 10.6332 and 11.0087 and 14.6588 and 13.2797 and 19.9049
Cell viability, MOML-14 (MOLM-14 cells; drug concentration 3.20E-09 M): 91.6026 and 96.0448 and 87.3775 and 99.3838 and 93.8853
Cell viability, MOML-14 (MOLM-14 cells; drug concentration 4.00E-07 M): 64.738 and 68.3352 and 96.2033 and 70.0311 and 76.4802
Cell viability, MOML-14 (MOLM-14 cells; drug concentration 6.40E-10 M): 101.496 and 98.8968 and 89.2553 and 98.5858 and 94.7773
Cell viability, MOML-14 (MOLM-14 cells; drug concentration 8.00E-08 M): 91.7317 and 86.3095 and 87.3482 and 74.3794 and 93.7562
Degradation at 200 nM (percentage of BTK degradation) (BTK): 56%

Cc1c(NC(=O)c2ccc(C(C)(C)C)cc2)cccc1-c1cn(C)c(=O)c(Nc2ccc(C(=O)N3CCN(CCCCCCNC(=O)CNc4cccc5c4C(=O)N(C4CCC(=O)NC4=O)C5=O)CC3)cc2)n1 (centres unmarked) [DD-03-171, reference compound]
Mino Cell Viability% (Mino cells; 1.00E-06 M): 32.4788% and 32.2293% and 34.0942% and 35.4207% and 39.7021%
Mino Cell Viability% (Mino cells; 1.60E-09 M): 121.168% and 104.266% and 118.227% and 107.943% and 119.96%
Mino Cell Viability% (Mino cells; 2.00E-07 M): 36.6289% and 34.2124% and 35.7227% and 37.3775% and 42.3025%
Mino Cell Viability% (Mino cells; 3.20E-10 M): 132.424% and 103.701% and 122.994% and 107.72% and 141.013%
Mino Cell Viability% (Mino cells; 4.00E-08 M): 54.0832% and 46.6234% and 39.8335% and 52.888% and 75.1359%
Mino Cell Viability% (Mino cells; 5.00E-06 M): 39.9385% and 37.4432% and 38.9273% and 39.4395% and 47.3326%
Mino Cell Viability% (Mino cells; 8.00E-09 M): 56.5785% and 60.1245% and 102.834% and 110.123% and 118.502%
IC50 (Mino cells; Mino cells, 72 h, Alamar Blue): 50 nM
NanoBRET(%) (BTK-NanoLuc fusion; 1.00E-05 M): 22.6421% and 28.6973% and 22%
NanoBRET(%) (BTK-NanoLuc fusion; 1.60E-08 M): 88.8537% and 90.4209% and 91.9881%
NanoBRET(%) (BTK-NanoLuc fusion; 2.00E-06 M): 21.3125% and 25.7571% and 22.7507%
NanoBRET(%) (BTK-NanoLuc fusion; 3.20E-09 M): 94.8868% and 96.3909% and 104.805%
NanoBRET(%) (BTK-NanoLuc fusion; 4.00E-07 M): 28.4685% and 42.1101% and 35.114%
NanoBRET(%) (BTK-NanoLuc fusion; 8.00E-08 M): 85.0919% and 75.63% and 91.5725%
MOLM-14 Cell Viability% (MOLM-14 cells; 1.00E-05 M): 97.5451% and 84.66% and 89.4149% and 67.5953% and 78.1969%
MOLM-14 Cell Viability% (MOLM-14 cells; 1.60E-08 M): 83.9791% and 92.5848% and 65.981% and 62.9872% and 76.0308%
MOLM-14 Cell Viability% (MOLM-14 cells; 2.00E-06 M): 93.025% and 80.0636% and 90.2426% and 67.3429% and 78.4493%
MOLM-14 Cell Viability% (MOLM-14 cells; 3.20E-09 M): 93.7588% and 71.6575% and 86.4445% and 88.7633% and 72.8844%
MOLM-14 Cell Viability% (MOLM-14 cells; 4.00E-07 M): 97.2809% and 75.3792% and 70.6831% and 69.0687% and 74.7981%
MOLM-14 Cell Viability% (MOLM-14 cells; 6.40E-10 M): 106.497% and 80.5215% and 63.4862% and 80.6741% and 69.8495%
MOLM-14 Cell Viability% (MOLM-14 cells; 8.00E-08 M): 102.353% and 96.782% and 97.1048% and 76.9172% and 82.8931%
IC50 (MOLM-14 cells; read-out: Cell viability IC50, MOLM-14 cells, 72 h, Alamar Blue): > 10000 nM
